Laboratory results taken from patent publication US20240150321A1, “PYRAZOLYLSULFONAMIDE COMPOUNDS AND THEIR USE IN THERAPY” (HOTSPOT THERAPEUTICS, INC., priority 2022, published 2024).
Where two headings read alike, the source gives them in different places.

Key:
[1] = test system: NF-kB reporter in Jurkat cells; assay: NF-kB reporter assay in Jurkat cells stimulated with aCD3/aCD28/PMA; assay type: cell-based; settings: Homo sapiens, read-out: NF-kB Reporter Assay IC50
How it was run: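 Jurkat cells (25,000/well, serum-free RPMI) were pre-incubated 1 h at 37° C with serially diluted compound, then stimulated 4 h with aCD3/aCD28/PMA at final […]. NF-kB reporter activity was read by One-Glo luminescence; IC50 values reported.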

[2] = biological target: Avi-tagged FL MALT-1 (Homo sapiens (Human), UniProt Q9UDY8); assay: MALT-1 Fluorogenic Peptide Cleavage Assay (MALT1 inhibition assay); assay type: biochemical; settings: Ac-LRSR-AMC peptide substrate, 30 min pre-incubation, 90 min reaction at room temperature
How it was run: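 Full-length Avi-tagged human MALT-1 (40 nM working stock) pre-incubated 30 min at RT with compound in 25 mM HEPES pH 6.89, 660 mM sodium citrate, 1 mM TCEP, […], 0.05% CHAPS, 2% DMSO. Ac-LRSR-AMC added at Km (50 μM working stock) or 10×Km (280 μM working stock); 90 min at RT, AMC fluorescence (ex 342/em 441 nm), IC50 from % inhibition curves.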

[3] = Jurkat cells, 1 hr compound pre-incubation, aCD3/aCD28/PMA stimulation 4 hr, One-Glo readout

Sequence of Avi-tagged FL MALT-1 (Q9UDY8 whole entry): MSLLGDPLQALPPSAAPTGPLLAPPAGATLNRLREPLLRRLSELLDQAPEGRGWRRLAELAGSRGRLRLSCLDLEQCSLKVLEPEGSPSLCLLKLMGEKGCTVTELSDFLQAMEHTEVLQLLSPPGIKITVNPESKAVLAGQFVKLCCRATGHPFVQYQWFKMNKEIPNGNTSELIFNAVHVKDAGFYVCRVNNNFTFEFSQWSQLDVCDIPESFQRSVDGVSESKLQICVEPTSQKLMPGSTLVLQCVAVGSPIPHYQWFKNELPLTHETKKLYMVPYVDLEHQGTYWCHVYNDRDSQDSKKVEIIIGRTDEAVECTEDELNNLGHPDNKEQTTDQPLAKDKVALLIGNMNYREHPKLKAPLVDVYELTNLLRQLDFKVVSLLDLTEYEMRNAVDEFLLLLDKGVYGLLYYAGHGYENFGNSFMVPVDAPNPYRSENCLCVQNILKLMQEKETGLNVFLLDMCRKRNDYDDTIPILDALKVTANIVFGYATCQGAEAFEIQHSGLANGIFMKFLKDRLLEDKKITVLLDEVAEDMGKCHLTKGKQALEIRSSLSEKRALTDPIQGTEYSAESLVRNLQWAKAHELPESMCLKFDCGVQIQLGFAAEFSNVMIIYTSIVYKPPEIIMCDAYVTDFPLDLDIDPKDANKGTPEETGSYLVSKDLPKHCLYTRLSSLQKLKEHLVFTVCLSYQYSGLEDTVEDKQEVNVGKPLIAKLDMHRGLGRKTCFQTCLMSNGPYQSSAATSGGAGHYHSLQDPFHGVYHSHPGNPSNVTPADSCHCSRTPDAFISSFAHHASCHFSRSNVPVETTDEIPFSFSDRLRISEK

Row | IC50 [1, 3] [nM] | IC50 [2] [nM] | SMILES | IC50 ([1]; Jurkat) [nM]
1 | < 400 | > 2500 | [2H]C([2H])([2H])n1nc(F)c2cccc(NS(=O)(=O)c3cnn(-c4cc(C(F)(F)F)ccn4)c3)c21 [Compound I-100] | 
2 | < 400 | > 2500 | Cn1ncc2cccc(NS(=O)(=O)c3cnn(-c4cc(C5(O)COC5)ccn4)c3)c21 [Compound I-101, 1-(4-(3-hydroxyoxetan-3-yl)pyridin-2-yl)-N-(1-methyl-1H-indazol-7-yl)-1H-pyrazole-4-sulfonamide] | 
3 | > 2500 | > 2500 | COCCn1ncc2cccc(NS(=O)(=O)c3cnn(-c4cc(C5CC5)ccn4)c3)c21 [Compound I-102, 1-(4-cyclopropylpyridin-2-yl)-N-(1-(2-methoxyethyl)-1H-indazol-7-yl)-1H-pyrazole-4-sulfonamide] | 
4 | < 400 | > 2500 | Cn1ncc2cccc(NS(=O)(=O)c3cnn(-c4cc(N5CCOCC5)ccn4)c3)c21 [Compound I-103, N-(1-methyl-1H-indazol-7-yl)-1-(4-morpholinopyridin-2-yl)-1H-pyrazole-4-sulfonamide] | 
5 | > 2500 | > 2500 | Cn1cc2ccc(F)c(NS(=O)(=O)c3cnn(-c4cc(C(F)(F)F)ccn4)c3)c2n1 [Compound I-104, N-(6-fluoro-2-methyl-2H-indazol-7-yl)-1-(4-(trifluoromethyl)pyridin-2-yl)-1H-pyrazole-4-sulfonamide] | 
6 | 1000 to 2500 | > 2500 | Cn1nc2c(NS(=O)(=O)c3cnn(-c4cc(C(F)(F)F)ccn4)c3)cccc2c1Cl [Compound I-105, N-(3-chloro-2-methyl-2H-indazol-7-yl)-1-(4-(trifluoromethyl)pyridin-2-yl)-1H-pyrazole-4-sulfonamide] | 
7 | < 400 | > 2500 | Cc1n[nH]c2cccc(NS(=O)(=O)c3cnn(-c4ccc(C5CC5)cn4)c3)c12 [Compound I-106, 1-(5-cyclopropylpyridin-2-yl)-N-(3-methyl-1H-indazol-4-yl)-1H-pyrazole-4-sulfonamide] | 
8 | > 2500 | > 2500 | O=S(=O)(Nc1cccc2cnn(C(F)F)c12)c1cnn(-c2cc(C(F)F)ccn2)c1 [Compound I-108, N-[1-(difluoromethyl)indazol-7-yl]-1-[4-(difluoromethyl)pyridin-2-yl]pyrazole-4-sulfonamide] | 
9 | < 400 | > 2500 | Cn1ncc2cccc(NS(=O)(=O)c3cnn(-c4cc(C5=CCOC5)ccn4)c3)c21 [Compound I-109, 1-(4-(2,5-Dihydrofuran-3-yl)Pyridin-2-yl)-N-(1-Methyl-1H-Indazol-7-yl)-1H-Pyrazole-4-Sulfonamide] | 
10 | > 2500 | > 2500 | O=S(=O)(Nc1cccc2cnn(C(F)F)c12)c1cnn(-c2cc(Cl)ccn2)c1 [Compound I-110, 1-(4-chloropyridin-2-yl)-N-[1-(difluoromethyl)indazol-7-yl]pyrazole-4-sulfonamide] | 
11 | < 400 | > 2500 | Cn1nc(Cl)c2cccc(NS(=O)(=O)c3cnn(-c4cc(C(F)(F)F)ccn4)c3)c21 [Compound I-111, N-(3-chloro-1-methyl-1H-indazol-7-yl)-1-(4-(trifluoromethyl)pyridin-2-yl)-1H-pyrazole-4-sulfonamide] | 
12 | < 400 | > 2500 | Cn1ncc2cccc(NS(=O)(=O)c3cnn(-c4cc(C5(F)CC(F)C5)ccn4)c3)c21 (stereo not drawn) [Compound I-112, 1-(4-(1,3-difluorocyclobutyl)pyridin-2-yl)-N-(1-methyl-1H-indazol-7-yl)-1H-pyrazole-4-sulfonamide] | 
13 | < 400 | > 2500 | Cn1ncc2cccc(NS(=O)(=O)c3cnn(-c4cc(C(C)(C)F)ccn4)c3)c21 [Compound I-113, 1-(4-(2-fluoropropan-2-yl)pyridin-2-yl)-N-(1-methyl-1H-indazol-7-yl)-1H-pyrazole-4-sulfonamide] | 
14 | < 400 | > 2500 | COC(C)(C)c1ccnc(-n2cc(S(=O)(=O)Nc3cccc4cnn(C)c34)cn2)c1 [Compound I-114, 1-(4-(2-Methoxypropan-2-yl)Pyridin-2-yl)-N-(1-Methyl-1H-Indazol-7-yl)-1H-Pyrazole-4-Sulfonamide] | 
15 | < 400 | ≤ 400 | COc1ccc2cnn(C)c2c1NS(=O)(=O)c1cnn(-c2cc(C(C)(C)C)ccn2)c1 [Compound I-115, 1-(4-(tert-butyl)pyridin-2-yl)-N-(6-methoxy-1-methyl-1H-indazol-7-yl)-1H-pyrazole-4-sulfonamide] | 
16 | < 400 | > 2500 | COC(C)c1ccnc(-n2cc(S(=O)(=O)Nc3cccc4cnn(C)c34)cn2)c1 (stereo not drawn) [Compound I-116, 1-(4-(1-methoxyethyl)pyridin-2-yl)-N-(1-methyl-1H-indazol-7-yl)-1H-pyrazole-4-sulfonamide] | 
17 | < 400 | 1000 to 2500 | Cc1cnc(-n2cc(S(=O)(=O)Nc3cccc4cnn(C)c34)cn2)cc1C(F)(F)F [Compound I-117, N-(1-methyl-1H-indazol-7-yl)-1-(5-methyl-4-(trifluoromethyl)pyridin-2-yl)-1H-pyrazole-4-sulfonamide] | 
18 | < 400 | > 2500 | Cn1ncc2cccc(NS(=O)(=O)c3cnn(-c4cc(C5CCOC5)ccn4)c3)c21 (stereo not drawn) [Compound I-118, N-(1-methyl-1H-indazol-7-yl)-1-(4-(tetrahydrofuran-3-yl)pyridin-2-yl)-1H-pyrazole-4-sulfonamide] | 
19 | < 400 | > 2500 | Cn1ncc2cccc(NS(=O)(=O)c3cnn(-c4cc(C5=CCOCC5)ccn4)c3)c21 [Compound I-119, 1-(4-(3,6-Dihydro-2H-Pyran-4-yl)Pyridin-2-yl)-N-(1-Methyl-1H-Indazol-7-yl)-1H-Pyrazole-4-Sulfonamide] | 
20 | > 2500 | > 2500 | Cn1ncc2cncc(NS(=O)(=O)c3cnn(-c4cc(C(C)(F)F)ccn4)c3)c21 [Compound I-120, 1-(4-(1,1-Difluoroethyl)Pyridin-2-yl)-N-(1-Methyl-1H-Pyrazolo[4,3-C]Pyridin-7-yl)-1H-Pyrazole-4-Sulfonamide] | 
21 | < 400 | 400 to 1000 | Cn1ncc2cccc(NS(=O)(=O)c3cnn(-c4cc(C(F)(F)F)c(Cl)cn4)c3)c21 [Compound I-121, 1-(5-Chloro-4-(Trifluoromethyl)Pyridin-2-yl)-N-(1-Methyl-1H-Indazol-7-yl)-1H-Pyrazole-4-Sulfonamide] | 
22 | < 400 | 400 to 1000 | Cn1ncc2cccc(NS(=O)(=O)c3cnn(-c4cc(C(F)(F)F)c(F)cn4)c3)c21 [Compound I-122, 1-(5-fluoro-4-(trifluoromethyl)pyridin-2-yl)-N-(1-methyl-1H-indazol-7-yl)-1H-pyrazole-4-sulfonamide] | 
23 | < 400 | > 2500 | Cn1ncc2cccc(NS(=O)(=O)c3cnn(-c4cc(C5CCOCC5)ccn4)c3)c21 [Compound I-123, N-(1-methyl-1H-indazol-7-yl)-1-(4-(tetrahydro-2H-pyran-4-yl)pyridin-2-yl)-1H-pyrazole-4-sulfonamide] | 

Row | SMILES | IC50 [1, 3] [nM] | IC50 [2] [nM] | IC50 ([1]; Jurkat) [nM]
24 | Cn1ncc2cccc(NS(=O)(=O)c3cnn(-c4cc(C5(O)CCC5)ccn4)c3)c21 [Compound I-107, 1-(4-(1-Hydroxycyclobutyl)Pyridin-2-yl)-N-(1-Methyl-1H-Indazol-7-yl)-1H-Pyrazole-4-Sulfonamide] |  | > 2500 | < 400
